Experimental data published in US7795252B2, “Rapamycin analogues and the uses thereof in the treatment of neurological, proliferative, and inflammatory disorders” (Pfizer Inc., priority 2004, dated 2010).

Legend:
[1] = system: prostate tumor cell line LNCap (PTEN-mutated); test: cell-based proliferation assay (MTS), LNCap; settings: Homo sapiens
Description: (§1) In this assay, a cell-based proliferation assay was performed to evaluate the compounds of the invention in inhibiting growth of cells including the breast tumor cell line MDA468 (PTEN-mutated) ATCC No. HTB-132 or prostate tumor cell line LNCap (PTEN-mutated) ATCC CRL-1740. • (i) On day one, cells were plated in 96-well culture plates. • (ii) On day two, compounds were added to cells at a predetermined concentration. • (iii) On day five, cell proliferation was measured by standard MTS assay protocol as described in S A O'Toole et al., Cancer Detection and Prevention, 27(1), 2003. Results were recorded by A490 absorbance using a 96-well format platereader. • (iv) The MTS results (A490 units) from compound-treated wells were then calculated as % control growth relative to the control (untreated) wells on the same culture plate.

[2] = system: Dissociated cortical neuron cultures; test: cortical neuron assay (neurite outgrowth); type: cell-based; settings: Cortical neurone, rat E15 cortical neurons, compound for 72 hours, read-out: EC50 in cortical neuron assays
Description: Dissociated cortical neuron cultures were prepared as previously described (Pong et al., 2001). Briefly, embryonic day 15 rat fetuses were collected and dissected in ice-cold PBS. Dissected cortices were pooled together and transferred to an enzymatic dissociation medium containing papain. After 30 minutes, the tissue was mechanically triturated with a fire-polished glass Pasteur pipette. Single-cell suspensions in complete media were seeded on poly-L-ornithine and laminin coated 96-well plates. After 24 hours, cultures were treated with various concentrations of compound for 72 hours. The cultures were then fixed and stained with an anti-tubulin primary antibody (TUJ-1) and a fluorescent-tagged secondary antibody. Neurite outgrowth was determined by using the Enhanced Neurite Outgrowth (ENO) algorithm with the Cellomics ArrayScan and expressed as average neurite length or total neurite length per cell.

human CD4+ T cells [3] = test: PMA/ionomycin activation assay; type: cell-based; settings: CD4+ T cells stimulated with PMA and ionomycin, tritiated thymidine incorporation, read-out: EC50, inhibition of proliferation
Description: (§2) In the following assays, human CD4+ T cells were purified by negative selection from peripheral blood lymphocytes using RosetteSep as per manufacture's instructions (StemCell Technologies, Inc. Vancouver, British Columbia).
Proliferation of the compounds was determined using this assay. CD4+ T cells (5×10^5 cells/well) were plated in flat bottomed 96 well microtiter plates in RPMI, 10% fetal calf serum, 2 mM glutamine media and stimulated with PMA (10 ng/mL) and ionomycin (200 ng/mL) in the presence of increasing concentration of compound. Seventy-two hours after activation, 100 μL of culture media was collected for IL-2 determination, an additional 100 μL fresh media was added to each well and cultures labeled with tritiated thymidine (1 μCi/well) for 6 hours. Cultures were harvested and tritiated thymidine incorporation (count per minute, CPM) assessed using a Trilux (Perkin Elmer, Shelton, Conn.). IL-2 production was determined using an ELISA as per manufacture's instructions (R&D Systems, Minneapolis, Minn.).

[4] = system: breast tumor cell line MDA468 (PTEN-mutated); test: cell-based proliferation assay (MTS), MDA468
Description: as §1

[5] = system: Mesencephalic dopaminergic neuron cultures; test: dopaminergic (3H-dopamine) uptake assay after MPP+ exposure; type: cell-based; settings: Neuron, rat E15 mesencephalic dopaminergic neurons, read-out: EC50 in dopaminergic uptake assays
Description: Mesencephalic dopaminergic neuron cultures were prepared as described in Pong et al., J. Neurochem. 69: 986-994, 1997, which is incorporated herein by reference in its entirety. Embryonic day 15 (E15) rat fetuses were collected and dissected in ice-cold phosphate-buffered saline (PBS). The ventral piece of tissue compromising the mesencephalic dopaminergic region was dissected out. Dissected pieces of tissue were pooled together and transferred to an enzymatic dissociation medium containing 20 IU/mL papain in Earle's balanced salt solution (Worthington Biochemical, Freehold, N.J., USA) and incubated for 60 minutes at 37° C. After enzymatic dissociation, the papain solution was aspirated and the tissue mechanically triturated with a fire-polished glass Pasteur pipette in complete medium (equal volumes of minimum essential medium (MEM) and F-12 nutrient mixture (GibcoBRL) supplemented with 0.1 mg/mL apotransferrin and 2.5 μg/mL insulin) containing 2,000 IU/mL DNase and 10 mg/mL ovomucoid protease inhibitor.
For dopamine uptake experiments, single-cell suspensions in complete media were seeded on poly-L-ornithine and laminin coated 24-well plates. The cultures were maintained for seven days prior to experimentation. Cultures were pretreated with various concentrations of the compound for 24 hours, then exposed to 10 mM MPP+ for 1 hour. Following the 1 hour incubation, media was exchanged three times and fresh compound was added for an additional 48 hours.
After 48 hours growth of mesencephalic dopaminergic neuron cultures following MPP+ exposure, high-affinity 3H-dopamine uptake was performed using a modified method described by Prochiantz et al., Nature 293: 570-572, 1981, which is incorporated herein by reference. Cultures were washed with pre-warmed PBS containing 5.6 mM glucose and 1 mM ascorbic acid. Cultures were then incubated for 15 minutes at 37° C. with 50 nM 3H-dopamine (31 Ci/mmol, DuPont-NEN, Wilmington, Del., USA). The cultures were washed twice with buffer and lysed with 0.5 N NaOH. The lysate was transferred to a scintillation vial containing Ultima Gold scintillation cocktail and radioactivity was determined with a liquid scintillation counter. Alternatively, culture lysates can be washed twice with buffer, incubated for 2 hours at room temperature with Optiphase Supermix scintillation cocktail (Wallac Scintillation Products, Gaithersburg, Md., USA), and radioactivity measured with a liquid scintillation counter.

[6] = system: Spinal cord neuron cultures; test: spinal cord neuron assay; type: cell-based; settings: rat E15 spinal cord neurons, compound for 72 h, read-out: EC50 in spinal cord neuron assays
Description: Spinal cord neuron cultures were prepared from embryonic day 15 (E15) rat embryos (Sprague-Dawley, Charles River Laboratories, Wilmington, Mass.). The embryos were collected and their spinal cords were removed in ice-cold phosphate-buffered saline (PBS) without Ca^2+ and Mg^2+. Dissected pieces of spinal cord tissue were pooled together and transferred to an enzymatic dissociation media containing 20 IU/mL papain in Earle's balanced salt solution (Worthington Biochemical, Freehold, N.J.) and incubated for 30 minutes at 37° C. After enzymatic dissociation, the papain solution was aspirated and the tissue mechanically triturated with a fire-polished Pasteur pipette in complete media [Neurobasal Medium with B-27 supplement (Gibco, Grand Island, N.Y.), 100 IU/mL penicillin, 100 μg/mL streptomycin, 3.3 μg/mL aphidicolin, 0.5 mM glutamate] containing 2,000 IU/mL DNase and 10-mg/mL ovomucoid protease inhibitor. Single-cell suspensions in complete media were plated on pre-coated poly-L-ornithine/laminin 96-well plates (Becton-Dickinson, Bedford, Mass.) at a density of 1.0×10^4 cells/well. Spinal cord neurons were maintained for 24 h then exposed to vehicle or various concentrations of compound for 72 h.

human CD4+ T cells [7] = test: Anti-CD3/-CD28 stimulation and IL-2 re-stimulation assay; type: cell-based; settings: for IC50: CD4+ T cells activated with anti-CD3/anti-CD28, re-stimulated with 1 ng/mL human IL-2, read-out: IC50, inhibition of IL-2 production; for IL-2 production compared with rapamycin and CCI-779: CD4+ T cells, IL-2 re-stimulation
Description: as §2
Tosyl-activated magnetic microspheres (Dynal, Great Neck, N.Y.) were coated with anti-CD3 Ab (1 μg/10^7 microspheres), and anti-CD28Ab (0.5 μg/10^7 microspheres) as described in Blair et al. J. Immunol., 160:12, 1998. Murine IgG was used to saturate the binding capacity of the microspheres (total protein=5 μg/10^7 microspheres). Protein-coated microspheres were added to purified CD4+ T cells (2×10^6 cells/mL, ratio 1 bead: 1 cell) and activated for 72 hours in RPMI, 10% fetal calf serum, 2 mM glutamine media. Cells were harvested, washed, and cultured overnight in fresh media and re-stimulated with IL-2 as described in Bennett et al., J. Immunol. 170:711, 2003. Briefly, overnight rested cells were recounted, plated (10^5 cells/well) in flat-bottomed 96 well microtiter plates and stimulated with 1 ng/mL human IL-2 (R&D Systems, Minneapolis, Minn.) in the presence of increasing concentrations of compound. Seventy-two hours after culture re-stimulation, plates were pulsed with 1 μCi/well tritiated thymidine and incubated for a 6-16 hour period.

rats following pMCAO = test: Permanent occlusion of middle cerebral artery (pMCAO), behavioral deficit scoring; type: in vivo, rat; settings: I.V. administration (10 mg/kg) following pMCAO
Description: Adult male Wistar rats (Charles River, Wilmington, Mass.) 270-300 g were anesthetized with 3% isoflurane in 70% nitrous oxide and 30% oxygen through a nose cone. Temperature was maintained at 37° C. throughout the surgery using a heating lamp. Permanent occlusion of MCAO was induced by electro cauterization of the distal portion of the MCA (via a craniotomy) with a 90 min ligation of both carotid arteries to interrupt collateral circulation (Chen S T, Hsu C Y, Hogan E L, Maricq H Balentine J D (1986) A model of focal ischemic stroke in the rat: reproducible extensive cortical infarction. Stroke 17:738-743). Compound was administered 10 mg/kg i.v. 1.5, 5.5, 24, 48, and 72 hours post ischemia. Rats were kept for 21 day for long-term functional recovery evaluation. […] Rats extending both forelimbs toward the table were scored as 0, flexing contralateral limb toward the body and/or rotating the contralateral shoulder and limb medially were scored as 1, and rolling up the body toward the contralateral side and attempting to grasp the tail were scored as 2. […] Rats retracting hind limb back on bench top immediately were scored as 0, delaying (>2 seconds) were scored as 1, and unable to retract hind limb were score as 2. […]

Compound | IC50 [1] | EC50 [2] | EC50 (human CD4+ T cells [3]) | IC50 [4] | EC50 [5] | EC50 [6] | IC50 (human CD4+ T cells [7]) | IL-2 production compared with rapamycin and CCI-779 (human CD4+ T cells [7]) | behavior deficit scoring (rats following pMCAO)
CO[C@H]1C[C@@H]2CC[C@@H](C)[C@@](O)(O2)C(=O)C(=O)N2CCCC[C@H]2C(=O)O[C@H]([C@H](C)C[C@@H]2CC[C@@H](O)[C@H](OC)C2)CC(=O)[C@H](C)/C=C(\C)[C@@H](O)[C@@H](OC)C(=O)[C@H](C)C[C@H](C)[C@@H]2C=C[C@H](/C=C/1C)ON2c1ccccc1 [Example 1, 9,27-dihydroxy-3-{2-[4-hydroxy-3-methoxycyclohexyl]-1-methylethyl}-10,21-dimethoxy-6,8,12,14,20,26-hexamethyl-37-phenyl-4,9,10,12,13,14,15,18,21,22,23,24,25,26,27,32,33,34,34a-nonadecahydro-3H-23,27-epoxy-18,15-(epoxyimino)pyrido[2,1-c][1,4]oxazacyclohentriacontine-1,5,11,28,29(6H,31H)-pentone] | < 0.01 µM | < 1 µM | 0.2 to 4.9 µM | < 0.01 µM | < 1 µM | < 1 µM | < 1 µM | commensurate | 
CO[C@H]1C[C@@H]2CC[C@@H](C)[C@@](O)(O2)C(=O)C(=O)N2CCCC[C@H]2C(=O)O[C@H]([C@H](C)C[C@@H]2CC[C@@H](O)[C@H](OC)C2)CC(=O)[C@H](C)/C=C(\C)[C@@H](O)[C@@H](OC)C(=O)[C@H](C)C[C@H](C)[C@@H]2CC[C@H](/C=C/1C)ON2c1ccccc1 [Example 2, 9,27-dihydroxy-3-{2-[4-hydroxy-3-methoxycyclohexyl]-1-methylethyl}-10,21-dimethoxy-6,8,12,14,20,26-hexamethyl-37-phenyl-4,9,10,12,13,14,15,16,17,18,21,22,23,24,25,26,27,32,33,34,34a-henicosahydro-3H-23,27-epoxy-18,15-(epoxyimino)pyrido[2,1-c][1,4]oxazacyclohentriacontine-1,5,11,28,29(6H,31H)-pentone] |  | < 1 µM |  |  |  | < 1 µM |  |  | statistically significant reduction
CO[C@H]1C[C@@H]2CC[C@@H](C)[C@@](O)(O2)C(=O)C(=O)N2CCCC[C@H]2C(=O)O[C@H]([C@H](C)C[C@@H]2CC[C@@H](O)[C@H](OC)C2)CC(=O)[C@H](C)/C=C(\C)[C@@H](O)[C@@H](OC)C(=O)[C@H](C)C[C@H](C)C2C=CC(/C=C/1C)ON2c1c(Cl)cccc1Cl [Example 3, 37-(2,6-dichlorophenyl)-9,27-dihydroxy-3-{2-[4-hydroxy-3-methoxycyclohexyl]-1-methylethyl}-10,21-dimethoxy-6,8,12,14,20,26-hexamethyl-4,9,10,12,13,14,15,18,21,22,23,24,25,26,27,32,33,34,34a-nonadecahydro-3H-23,27-epoxy-18,15-(epoxyimino)pyrido[2,1-c][1,4]oxazacyclohentriacontine-1,5,11,28,29(6H,31H)-pentone] |  | < 1 µM | 0.2 to 4.9 µM |  |  | < 1 µM | < 1 µM | commensurate | 
